Experimental data as given in paper PMC7567097, “A nanoluciferase SARS-CoV-2 for rapid neutralization testing and screening of anti-infective drugs for COVID-19” (Nature Communications, 2020).
Where two headings read alike, the source gives them in different places.

Tests used:
SARS-CoV-2-Nluc = test: microbe, parasite or virus in culture; type: cell-based
in vitro = details: human
[1] = Severe acute respiratory syndrome coronavirus 2, 48 h
[2] = Severe acute respiratory syndrome coronavirus 2, read-out: EC50 (µM) Replicate 1
[3] = Severe acute respiratory syndrome coronavirus 2, read-out: EC50 (µM) Replicate 2
[4] = read-out: EC50 (µM) Replicate 1
[5] = read-out: EC50 (µM) Replicate 2

Row | Compound | EC50 (SARS-CoV-2-Nluc; [1]) [µM] | EC50 (SARS-CoV-2-Nluc; [2]) [µM] | EC50 (SARS-CoV-2-Nluc; [3]) [µM] | CC50 (in vitro; CC50) [µM] | CC50 (in vitro; CC50 (µM) Replicate 1) [µM] | CC50 (in vitro; CC50 (µM) Replicate 2) [µM] | EC50 (SARS-CoV-2-Nluc; read-out: EC50) [µM] | EC50 (SARS-CoV-2-Nluc; [4]) [µM] | EC50 (SARS-CoV-2-Nluc; [5]) [µM]
1 | CC(C)OC(=O)[C@H](C)N[P@](=O)(OC[C@H]1O[C@@H](n2ccc(=O)[nH]c2=O)[C@](C)(F)[C@@H]1O)Oc1ccccc1 [Sofosbuvir] | > 10 | > 10 | > 10 | > 50 | > 50 | > 50 | – | – | –
2 | CC1=CC[C@H](C(=O)N(c2cc(C#CC(C)(C)C)sc2C(=O)O)[C@H]2CC[C@](O)(CO[C@H]3CCOC3)CC2)CC1 [Radalbuvir] | > 10 | > 10 | > 10 | > 50 | > 50 | > 50 | – | – | –
3 | Fc1ccccc1-c1nc2ccn(Cc3ccc(-c4ccc(C(F)(F)F)cc4C(F)(F)F)nn3)cc-2n1 [Tegobuvir] | > 10 | > 10 | > 10 | 17.9 ± 3.1 | 20 | 15.7 | – | – | –
4 | CC(C)OC(=O)[C@H](C)N[P@](=O)(OC[C@H]1O[C@@](C#N)(c2ccc3c(N)ncnn23)[C@](C)(O)[C@@H]1OC(=O)C(C)C)Oc1ccccc1 [GS-6620] | > 10 | > 10 | > 10 | > 50 | > 50 | > 50 | – | – | –
5 | Cc1cn2nc([C@@H]3CCCCN3C(=O)c3cc(Cl)ccc3NS(C)(=O)=O)cc2nc1N1CC[C@H](N)C1 [Presatovir] | 2.53 ± 0.69 | 3.01 | 2.04 | – | – | – | – | – | –
6 | COC(=O)N[C@H](C(=O)N1CC2(CC2)C[C@H]1c1ncc(-c2ccc3c(c2)C(F)(F)c2cc(-c4ccc5nc([C@@H]6[C@H]7CC[C@H](C7)N6C(=O)[C@@H](NC(=O)OC)C(C)C)[nH]c5c4)ccc2-3)[nH]1)C(C)C [Ledapisvir] | > 10 | > 10 | > 10 | > 50 | > 50 | > 50 | – | – | –
7 | CCOc1nc(N)nc2c1ncn2[C@@H]1O[C@@H]2COP(=O)(OC(C)C)O[C@H]2[C@@]1(C)F (stereo partly drawn) [PSI-352938] | > 10 | > 10 | > 10 | > 50 | > 50 | > 50 | – | – | –
8 | COC[C@H]1C[C@@H](c2ncc(-c3ccc4c(c3)COc3cc5c(ccc6nc([C@@H]7CC[C@H](C)N7C(=O)[C@@H](NC(=O)OC)C(C)C)[nH]c65)cc3-4)[nH]2)N(C(=O)[C@H](NC(=O)OC)c2ccccc2)C1 [Velpatasvir] | > 10 | > 10 | > 10 | > 50 | > 50 | > 50 | – | – | –
9 | COC(=O)N[C@H](C(=O)N[C@@H](Cc1ccccc1)[C@@H](O)CN(Cc1ccc(-c2ccccn2)cc1)NC(=O)[C@@H](NC(=O)OC)C(C)(C)C)C(C)(C)C [Atazanavir] | > 10 | > 10 | > 10 | > 50 | > 50 | > 50 | – | – | –
10 | O=C1c2c(O)c(=O)ccn2N([C@@H]2c3ccccc3SCc3c2ccc(F)c3F)[C@@H]2COCCN12 [Baloxavir] | > 10 | > 10 | > 10 | 47 ± 1.3 | 46 | 47.9 | – | – | –
11 | NC(=O)c1nc(F)c[nH]c1=O [Favipiravir (T-705), Favipiravir] | > 10 | > 10 | > 10 | > 50 | > 50 | > 50 | – | – | –
12 | C=C1[C@H](CO)[C@@H](O)C[C@@H]1n1cnc2c(=O)[nH]c(N)nc21 [Entecavir] | > 10 | > 10 | > 10 | > 50 | > 50 | > 50 | – | – | –
13 | Voxilaprevir | – | – | – | – | – | – | > 10 | > 10 | > 10
14 | CCOC(=O)[C@H](C)N[P@](=O)(CO[C@@H]1C=C(F)[C@H](n2cnc3c(N)ncnc32)O1)Oc1ccccc1 [Rovafovir (GS-9131), Rovafovir] | – | – | – | – | – | – | > 10 | > 10 | > 10
15 | CC(C)c1nc(CN(C)C(=O)N[C@H](C(=O)N[C@@H](Cc2ccccc2)C[C@H](O)[C@H](Cc2ccccc2)NC(=O)OCc2cncs2)C(C)C)cs1 [Ritonavir] | > 10 | > 10 | > 10 | – | – | – | – | – | –
